In US20250353891A1 (MEDIMMUNE LIMITED, priority 2022, published 2025):
Starred links: 1 amine or outer side, 2 acyl side, 3 side chain; linkers in the order of their positions; H or OH if unused. Non-standard residues stand in square brackets, D forms with d. Residues, ends and D or L forms follow the SMILES beside them. Groups on a side chain read outwards from the residue. *: point of attachment. C20 diacid = O=C(O)CCCCCCCCCCCCCCCCCCC(=O)*; X2 = CC(C)(CC(N)=O)[C@H](N[*:1])C(=O)[*:2]; C18 diacid = O=C(O)CCCCCCCCCCCCCCCCC(=O)*; γGlu = O=C(O)[C@H](CCC(=O)[*:2])N[*:1]; X3 = O=C(CN(Cc1c[nH]cn1)[*:1])[*:2]; αMeF = C[C@](N)(Cc1ccccc1)C(=O)O; AEEA = NCCOCCOCC(=O)O; Aib = CC(C)(N)C(=O)O

Molecular target: human GLP-1 receptor (hGLP-1R) (Homo sapiens, UniProt P43220)
Test: cAMP production (HTRF) in CHO cells expressing hGLP-1R
Format: cell-based
Set-up: expressed in transfected cells
Details: for % Relative Potency Ratio: % GLP-1R activity relative to GLP-1 / % GlucR activity relative to glucagon
Method: Cells were re-suspended in assay buffer at a batch-dependent optimized concentration (typically hGLP-1R cells at 1×10^5 cells/mL, hGCGR cells at 2×10^5 cells/mL).
Cells were added to the assay plate using a multidrop dispenser and incubated at room temperature for 30 minutes before measuring the cAMP level using a cAMP dynamic 2 homogeneous time resolved Fluorescence (HTRF) kit (Cisbio Bioassays #62AM4PEJ) following the two-step protocol as per manufacturer's recommendations. In brief, anti-cAMP cryptate (donor fluorophore) and cAMP-d2 (acceptor fluorophore) were made up separately by diluting each 1 in 20 in conjugate and lysis buffer provided in the kit. Anti-CAMP cryptate was added to all wells of the assay plate, followed by cAMP-d2 added to all wells except non-specific binding (NSB) wells (to which conjugate and lysis buffer was added).
Data was transformed to % Delta F as described in the manufacturer's guidelines and analyzed by 4-parameter logistic fit to determine EC50 values.

Chain of human GLP-1 receptor (hGLP-1R) (P43220 24-463): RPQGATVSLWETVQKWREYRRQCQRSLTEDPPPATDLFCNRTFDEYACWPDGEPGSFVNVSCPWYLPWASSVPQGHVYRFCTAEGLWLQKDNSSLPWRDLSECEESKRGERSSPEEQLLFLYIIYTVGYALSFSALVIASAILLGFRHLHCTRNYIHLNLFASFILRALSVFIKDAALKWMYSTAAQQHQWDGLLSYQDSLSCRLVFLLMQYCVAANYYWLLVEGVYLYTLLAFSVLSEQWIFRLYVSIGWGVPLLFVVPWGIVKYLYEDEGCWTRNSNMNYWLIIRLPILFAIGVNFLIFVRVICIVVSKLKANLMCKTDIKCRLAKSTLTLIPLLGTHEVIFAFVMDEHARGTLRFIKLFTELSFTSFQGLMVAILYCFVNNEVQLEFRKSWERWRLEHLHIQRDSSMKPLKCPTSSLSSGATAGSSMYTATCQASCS

CC[C@H](C)[C@H](NC(=O)[C@H](Cc1c[nH]c2ccccc12)NC(=O)[C@H](C)NC(=O)[C@@H](NC(=O)[C@](C)(Cc1ccccc1)NC(=O)[C@H](CC(=O)O)NC(=O)[C@H](CCCCNC(=O)COCCOCCNC(=O)COCCOCCNC(=O)CC[C@H](NC(=O)CCCCCCCCCCCCCCCCC(=O)O)C(=O)O)NC(=O)[C@H](C)NC(=O)[C@H](C)NC(=O)[C@H](CCCNC(=N)N)NC(=O)[C@H](CO)NC(=O)[C@H](CC(=O)O)NC(=O)[C@H](CC(C)C)NC(=O)[C@](C)(Cc1ccccc1)NC(=O)[C@H](CCCCN)NC(=O)[C@H](CO)NC(=O)[C@@H](NC(=O)[C@H](CC(=O)O)NC(=O)[C@H](CO)NC(=O)[C@@H](NC(=O)[C@](C)(Cc1ccccc1)NC(=O)[C@H](CO)NC(=O)CNC(=O)[C@H](Cc1c[nH]cn1)NC(=O)C(C)(C)NC(=O)[C@@H](N)Cc1c[nH]cn1)[C@@H](C)O)C(C)C)[C@@H](C)CC)C(=O)N[C@@H](C)C(=O)N[C@@H](CC(N)=O)C(=O)N[C@H](C(N)=O)[C@@H](C)O [Peptide 230] (H-H[Aib]HGS[αMeF]TSDVSK[αMeF]LDSRAAK([AEEA-AEEA-γGlu-C18 diacid])D[αMeF]IAWIANT-NH2)
% Relative Potency Ratio (Table 7): 0.4

CC[C@H](C)[C@H](NC(=O)C(C)(C)NC(=O)[C@H](CCC(N)=O)NC(=O)[C@@H](NC(=O)[C@](C)(Cc1ccccc1)NC(=O)[C@H](CC(=O)O)NC(=O)[C@H](CCCCNC(=O)COCCOCCNC(=O)COCCOCCNC(=O)CC[C@H](NC(=O)CCCCCCCCCCCCCCCCC(=O)O)C(=O)O)NC(=O)[C@H](C)NC(=O)[C@H](C)NC(=O)[C@H](CCCNC(=N)N)NC(=O)[C@H](CO)NC(=O)[C@H](CC(=O)O)NC(=O)[C@H](CC(C)C)NC(=O)[C@](C)(Cc1ccccc1)NC(=O)[C@H](CCCCN)NC(=O)[C@H](CO)NC(=O)[C@@H](NC(=O)[C@H](CC(=O)O)NC(=O)[C@H](CO)NC(=O)[C@@H](NC(=O)[C@](C)(Cc1ccccc1)NC(=O)[C@H](CO)NC(=O)CNC(=O)[C@@H](NC(=O)[C@H](CO)NC(=O)[C@@H](N)Cc1c[nH]cn1)C(C)(C)CC(N)=O)[C@@H](C)O)C(C)C)C(C)C)C(=O)N[C@@H](C)C(=O)N[C@@H](CC(N)=O)C(=O)N[C@H](C(N)=O)[C@@H](C)O [Peptide 324] (H-HS[X2]GS[αMeF]TSDVSK[αMeF]LDSRAAK([AEEA-AEEA-γGlu-C18 diacid])D[αMeF]VQ[Aib]IANT-NH2; N-terminus assumed)
% Relative Potency Ratio (Table 7): 2.9

CC[C@H](C)[C@H](NC(=O)[C@H](Cc1c[nH]c2ccccc12)NC(=O)[C@H](CCCCNC(=O)CC[C@H](NC(=O)CC[C@H](NC(=O)CCOCCOCCNC(=O)CC[C@H](NC(=O)CC[C@H](NC(=O)CCCCCCCCCCCCCCCCCCC(=O)O)C(=O)O)C(=O)O)C(=O)O)C(=O)O)NC(=O)[C@@H](NC(=O)[C@H](Cc1ccccc1)NC(=O)[C@H](CC(=O)O)NC(=O)[C@H](CCC(N)=O)NC(=O)[C@H](C)NC(=O)[C@H](C)NC(=O)[C@H](CCC(N)=O)NC(=O)[C@H](CO)NC(=O)[C@H](CC(=O)O)NC(=O)[C@H](CC(C)C)NC(=O)[C@](C)(Cc1ccccc1)NC(=O)[C@H](CCCCN)NC(=O)[C@H](CO)NC(=O)[C@@H](NC(=O)[C@H](CC(=O)O)NC(=O)[C@H](CO)NC(=O)[C@@H](NC(=O)[C@](C)(Cc1ccccc1)NC(=O)[C@H](CO)NC(=O)CNC(=O)[C@H](Cc1c[nH]cn1)NC(=O)C(C)(C)NC(=O)[C@@H](N)Cc1c[nH]cn1)[C@@H](C)O)C(C)C)C(C)C)C(=O)N[C@@H](C)C(=O)N[C@@H](CC(N)=O)C(=O)N[C@H](C(N)=O)[C@@H](C)O [Peptide 357]
% Relative Potency Ratio: 1.2

CC[C@H](C)[C@H](NC(=O)[C@H](Cc1c[nH]c2ccccc12)NC(=O)[C@H](CCCCNC(=O)COCCOCCNC(=O)COCCOCCNC(=O)CC[C@H](NC(=O)CC[C@H](NC(=O)CCCCCCCCCCCCCCCCCCC(=O)O)C(=O)O)C(=O)O)NC(=O)[C@@H](NC(=O)[C@H](Cc1ccccc1)NC(=O)[C@H](CC(=O)O)NC(=O)[C@H](CCC(N)=O)NC(=O)[C@H](C)NC(=O)[C@H](C)NC(=O)[C@H](CCCNC(=N)N)NC(=O)[C@H](CO)NC(=O)[C@H](CC(=O)O)NC(=O)[C@H](CC(C)C)NC(=O)[C@](C)(Cc1ccccc1)NC(=O)[C@H](CCCCN)NC(=O)[C@H](CO)NC(=O)[C@@H](NC(=O)[C@H](CC(=O)O)NC(=O)[C@H](CO)NC(=O)[C@@H](NC(=O)[C@](C)(Cc1ccccc1)NC(=O)[C@H](CO)NC(=O)CNC(=O)[C@H](Cc1c[nH]cn1)NC(=O)[C@H](CO)NC(=O)CNCc1c[nH]cn1)[C@@H](C)O)C(C)C)C(C)C)C(=O)N[C@@H](C)C(=O)N[C@@H](CC(N)=O)C(=O)N[C@H](C(N)=O)[C@@H](C)O [Peptide 380] (H-[X3]SHGS[αMeF]TSDVSK[αMeF]LDSRAAQDFVK([AEEA-AEEA-γGlu-γGlu-C20 diacid])WIANT-NH2)
% Relative Potency Ratio: 33.9

CCCCCCCCCCCCCCCCCC(=O)N[C@@H](CCC(=O)N[C@@H](CCC(=O)NCCOCCOCCC(=O)NCCOCCOCCC(=O)NCCCC[C@H](NC(=O)[C@H](CC(=O)O)NC(=O)[C@H](CO)NC(=O)[C@@H](NC(=O)[C@](C)(Cc1ccccc1)NC(=O)[C@H](CO)NC(=O)CNC(=O)[C@H](CCC(N)=O)NC(=O)[C@H](CO)NC(=O)[C@@H](N)Cc1c[nH]cn1)[C@@H](C)O)C(=O)N[C@@H](CO)C(=O)N[C@@H](CCCCN)C(=O)N[C@H](C(=O)N[C@@H](CC(C)C)C(=O)N[C@@H](CC(=O)O)C(=O)N[C@@H](CO)C(=O)N[C@H](C(=O)N[C@@H](C)C(=O)N[C@@H](C)C(=O)N[C@@H](CCC(N)=O)C(=O)N[C@@H](CC(=O)O)C(=O)N[C@@](C)(Cc1ccccc1)C(=O)N[C@H](C(=O)N[C@@H](CCC(=O)O)C(=O)NC(C)(C)C(=O)N[C@@H](CC(C)C)C(=O)N[C@@H](C)C(=O)N[C@@H](CC(N)=O)C(=O)N[C@H](C(N)=O)[C@@H](C)O)C(C)C)C(C)(C)CCNC(=N)N)C(c1ccccc1)c1ccccc1)C(=O)O)C(=O)O [Peptide 393, HSQGS(αMePhe)TSDK((PEG)2-(PEG)2-γE-yE-Stearoyl)10SK(Dip)LDS(β-dimethylArg)AAQD(αMePhe)VE(Aib)LANT-amide]
% Relative Potency Ratio: 9.3

CC(C)C[C@H](NC(=O)[C@H](Cc1c[nH]c2ccccc12)NC(=O)[C@H](CCCNC(=N)N)NC(=O)[C@@H](NC(=O)[C@H](Cc1ccccc1)NC(=O)[C@H](CC(=O)O)NC(=O)[C@H](CCC(N)=O)NC(=O)[C@H](C)NC(=O)[C@H](CCCNC(=N)N)NC(=O)[C@H](CCCCNC(=O)COCCOCCNC(=O)COCCOCCNC(=O)CC[C@H](NC(=O)CCCCCCCCCCCCCCCCCCC(=O)O)C(=O)O)NC(=O)[C@@H](NC(=O)[C@H](CC(=O)O)NC(=O)[C@H](CC(C)C)NC(=O)[C@](C)(Cc1ccccc1)NC(=O)[C@H](CCCCN)NC(=O)[C@H](CO)NC(=O)[C@@H](NC(=O)[C@H](CC(=O)O)NC(=O)[C@H](CO)NC(=O)[C@@H](NC(=O)[C@H](Cc1ccccc1)NC(=O)[C@@H](NC(=O)CNC(=O)[C@H](CCC(N)=O)NC(=O)C(C)(C)NC(=O)[C@@H](N)Cc1c[nH]cn1)[C@@H](C)O)[C@@H](C)O)C(C)C)[C@@H](C)O)C(C)C)C(=O)N[C@@H](CCC(=O)O)C(=O)N[C@@H](C)C(=O)NC(C)(C)C(=O)NCC(=O)O [Peptide 407]
% Relative Potency Ratio (Table 6): 4.4

CC(C)C[C@H](NC(=O)[C@H](Cc1c[nH]c2ccccc12)NC(=O)[C@H](CCC(N)=O)NC(=O)[C@@H](NC(=O)[C@H](Cc1ccccc1)NC(=O)[C@H](CC(=O)O)NC(=O)[C@H](CCCNC(=N)N)NC(=O)[C@H](C)NC(=O)[C@H](CCCNC(=N)N)NC(=O)[C@H](CCCCNC(=O)COCCOCCNC(=O)COCCOCCNC(=O)CC[C@H](NC(=O)CCCCCCCCCCCCCCCCCCC(=O)O)C(=O)O)NC(=O)[C@@H](NC(=O)[C@H](CCC(=O)O)NC(=O)[C@H](CC(C)C)NC(=O)[C@](C)(Cc1ccccc1)NC(=O)[C@H](CCCCN)NC(=O)[C@H](CO)NC(=O)[C@@H](NC(=O)[C@H](CC(=O)O)NC(=O)[C@H](CO)NC(=O)[C@@H](NC(=O)[C@H](Cc1ccccc1)NC(=O)[C@@H](NC(=O)CNC(=O)[C@H](CCC(N)=O)NC(=O)C(C)(C)NC(=O)[C@@H](N)Cc1c[nH]cn1)[C@@H](C)O)[C@@H](C)O)C(C)C)[C@@H](C)O)C(C)C)C(=O)N[C@@H](CC(C)C)C(=O)N[C@@H](CCC(=O)O)C(=O)NC(C)(C)C(=O)NCC(=O)O [Peptide 444]
% Relative Potency Ratio (Table 6): 14.1

CC(C)C[C@H](NC(=O)[C@H](CC(C)C)NC(=O)[C@H](Cc1c[nH]c2ccccc12)NC(=O)[C@H](CCCNC(=N)N)NC(=O)[C@@H](NC(=O)[C@H](Cc1ccccc1)NC(=O)[C@H](CC(=O)O)NC(=O)[C@H](CCC(N)=O)NC(=O)[C@H](C)NC(=O)[C@H](CCCNC(=N)N)NC(=O)[C@H](CCCCNC(=O)COCCOCCNC(=O)COCCOCCNC(=O)CC[C@H](NC(=O)CCCCCCCCCCCCCCCCC(=O)O)C(=O)O)NC(=O)[C@H](CCCNC(=N)N)NC(=O)[C@H](CC(=O)O)NC(=O)[C@H](CC(C)C)NC(=O)[C@](C)(Cc1ccccc1)NC(=O)[C@H](CCCCN)NC(=O)[C@H](CO)NC(=O)[C@@H](NC(=O)[C@H](CC(=O)O)NC(=O)[C@H](CO)NC(=O)[C@@H](NC(=O)[C@H](Cc1ccccc1)NC(=O)[C@@H](NC(=O)CNC(=O)[C@H](CCC(N)=O)NC(=O)C(C)(C)NC(=O)[C@@H](N)Cc1c[nH]cn1)[C@@H](C)O)[C@@H](C)O)C(C)C)C(C)C)C(=O)N[C@@H](C)C(=O)N[C@@H](CCC(=O)O)C(N)=O [Peptide 461] (H-H[Aib]QGTFTSDVSK[αMeF]LDRK([AEEA-AEEA-γGlu-C18 diacid])RAQDFVRWLLAE-NH2; N-terminus assumed)
EC50 (Table 6, peptides modified at position 17, cAMP in CHO hGLP-1R cells, geometric mean, read-out: hGLP-1R EC50): 0.167 nM
